Data reported in patent publication US20120283280A1, “IMIDAZOTETRAZINONE-BASED COMBI-MOLECULES” (priority 2011, published 2012).
“Also recorded” adds a separate entry of the source.

What was measured:
[1] = Dose finding and comparative toxicity study in mice; assay type: in vivo; design: key to Vital Sign, Day 8 / Vital Sign, Day 10 / Vital Sign, Day 16 / Vital Sign, Day 1 / Vital Sign, Day 3 / Vital Sign, Day 6: Normal (i.e. No sign of Toxicity); BCS = 2: BCS (Body Condition Score) = 2 indicates that mice are underconditioned (observable signs include segmentation of the vertebral column, palpability of the dorsal pelvic bones); conditions: for Vital Sign, Day 1 / Vital Sign, Day 3 / Vital Sign, Day 6 / Vital Sign, Day 8 / Vital Sign, Day 10 / Vital Sign, Day 16: CD-1 mice (n = 6), 100 mg/kg once every other day
Text: The results are further illustrated hereinbelow in Table 4.

DU145 cell line = experiment: Mouse xenograft study (DU145); conditions: for antitumor activity: DU145 xenograft, 100 mg/kg i.p. every other day, 31 days after treatment
DU145 = experiment: Growth inhibition assay (SRB), DU145; conditions: Homo sapiens, DU-145, 144 h, read-out: IC50 (x ± SD)
Description: (§1) Cell Culture: The human prostate cancer cell line DU145 was obtained from the American Type Culture Collection (Manassas, Va.)). The androgen-sensitive prostate cancer cell lines LNCaP-FGC, LNCaP-EGFR and LNCaP-erbB2 (stably transfected with EGFR erbB2 gene respectively) were generous gifts from Dr. Moulay Aloui-Jamali (Jewish General Hospital, Montreal, Quebec, Canada). […] The cultures were maintained in logarithmic growth by harvesting with a trypsin-EDTA solution containing 0.5 mg/mL trypsin and 0.2 mg/mL EDTA and replating before confluence. In all assays, the cells were plated over a period of time ranging from 24-48 h prior to drug administration.

DU145 cells [2] = experiment: Alkaline comet assay for quantization of DNA damage; assay type: cell-based, human
Description: Alkaline Comet Assay for Quantization of DNA Damage: A modified alkaline comet assay technique was used for quantization of DNA damage induced in DU145 cells. The cells were exposed to a dose range of the drugs (JDF12, JDF04R, or MTZ) over a period of 2 h and harvested with trypsin-EDTA. The cells were subsequently collected by centrifugation and resuspended in PBS. The resulting cell suspensions were diluted to 3×10^5 cell/mL and mixed with agarose (0.75%) in PBS at 37° C. in a 1:9 dilution. The gels were cast on Gelband strips (Mandel Scientific, Guelph, Ontario, Canada) using gel casting chambers and then immediately placed into a lysis buffer (2.5 M NaCl, 0.1 M tetrasodium EDTA, 10 mM Trisbase, 1% (v/v) N-lauryl sarcosine, 10% (v/v) DMSO, and 1% (v/v) Triton X-100). After being kept overnight at 4° C., the gels were gently rinsed with distilled water and immersed in a second lysis buffer (2.5 M NaCl, 0.1 M tetrasodium EDTA, 10 mM Tris base) containing 1 mg/mL proteinase K for 60 min at 37° C. The cells were subsequently rinsed with distilled water, incubated in alkaline electrophoresis buffer for 30 min at 37° C. and electrophoresed at 400 mA for 20 min. The gels were then rinsed with distilled water and placed into 1 M ammonium acetate for 30 min. The gels were subsequently soaked in 100% ethanol for 2 h, dried overnight and stained with SYBR Gold (1:10000 dilution of stock supplied by Molecular Probes, Eugene, Oreg.) for 20 min. Comets were visualized at 330× magnification and DNA damage was assessed using the tail moment parameter (i.e. the distance between the barycenter of the head and the tail of the comet multiplied by the percentage DNA in the tail region). A minimum of 50 cell comets were analyzed for each sample, using Comet Assay χ v4.2 image analysis software, and the values presented as average tail moments for the entire cell population.
The reactive nature of the latter species makes its detection very difficult. However, the induction of DNA damage (i.e. DNA alkylation) represents evidence of its formation and fleeting presence.

LNCaP-WT = experiment: Growth inhibition assay (SRB), LNCaP-WT; conditions: 144 h, read-out: IC50 (x ± SD)
Description: as §1

[3] = biological target: T1, EGFR autophosphorylation in DU145 cells (Homo sapiens, UniProt P00533); experiment: EGFR phosphorylation assay, whole cell (Western blot); assay type: cell-based
T1 construct: endogenous in cells; host or cells: DU145
T1 sequence (P00533 25-1210): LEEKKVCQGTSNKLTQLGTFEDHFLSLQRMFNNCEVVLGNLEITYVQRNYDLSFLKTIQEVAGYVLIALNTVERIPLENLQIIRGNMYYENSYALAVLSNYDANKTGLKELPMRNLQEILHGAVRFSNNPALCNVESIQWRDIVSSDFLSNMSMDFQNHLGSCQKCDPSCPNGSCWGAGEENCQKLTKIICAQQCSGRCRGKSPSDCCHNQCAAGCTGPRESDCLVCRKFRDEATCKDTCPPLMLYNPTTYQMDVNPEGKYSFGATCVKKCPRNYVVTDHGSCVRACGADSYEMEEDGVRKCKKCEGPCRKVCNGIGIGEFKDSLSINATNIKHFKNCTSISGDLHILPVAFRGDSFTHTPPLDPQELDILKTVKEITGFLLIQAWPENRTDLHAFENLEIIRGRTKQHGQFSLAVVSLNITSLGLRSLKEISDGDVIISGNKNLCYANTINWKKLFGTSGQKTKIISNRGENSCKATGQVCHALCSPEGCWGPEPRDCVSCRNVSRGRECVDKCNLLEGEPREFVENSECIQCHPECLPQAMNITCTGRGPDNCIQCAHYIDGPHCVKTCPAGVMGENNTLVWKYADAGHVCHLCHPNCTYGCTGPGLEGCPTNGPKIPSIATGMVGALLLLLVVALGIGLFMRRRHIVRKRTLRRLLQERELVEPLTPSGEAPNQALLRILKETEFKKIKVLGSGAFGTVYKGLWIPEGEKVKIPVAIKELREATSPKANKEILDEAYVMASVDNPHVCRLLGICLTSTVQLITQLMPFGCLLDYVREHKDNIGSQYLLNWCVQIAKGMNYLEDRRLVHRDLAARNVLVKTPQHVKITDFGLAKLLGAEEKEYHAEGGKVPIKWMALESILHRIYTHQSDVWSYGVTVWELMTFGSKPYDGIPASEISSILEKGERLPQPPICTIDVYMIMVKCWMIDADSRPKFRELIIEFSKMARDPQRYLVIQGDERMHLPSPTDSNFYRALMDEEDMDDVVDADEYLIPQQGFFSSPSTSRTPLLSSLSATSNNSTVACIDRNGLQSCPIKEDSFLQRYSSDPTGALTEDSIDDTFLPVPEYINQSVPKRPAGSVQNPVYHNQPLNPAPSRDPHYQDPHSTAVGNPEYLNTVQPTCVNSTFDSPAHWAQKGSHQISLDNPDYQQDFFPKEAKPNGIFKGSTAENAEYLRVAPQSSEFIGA
Description: EGFR Phosphorylation Assay: DU145 cells (1×10^6) were preincubated in a six-well plate using 10% serum at 37° C. over a period of 24 h followed by a starving period of 24 h. The cells where then exposed to a dose range of each drug over a period of 2 h and subsequently treated with 50 ng/ml of EGF for 20 min at 37° C. The cells were washed with PBS and resuspended in cold lysis buffer [50 mmol/L Tris-HCl (pH 7.5), 150 mmol/L NaCl, 1% NP40, 1 mmol/L EDTA, 5 mmol/L NaF, 1 mmol/L Na3VO4, protease inhibitor tablet (Roche Biochemicals, Laval, Quebec, Canada)]. The lysates were kept on ice for 30 min and collected by centrifugation at 10,000 rpm for 20 min at 4° C. The concentrations of protein were determined using the Bio-Rad protein assay kit (Bio-Rad Laboratories, Hercules, Calif.). Equal amounts of protein […] were subjected to a 10% SDS-polyacrylamide gel electrophoresis (SDS-PAGE) and transferred to a polyvinylidene difluoride membrane (Millipore, Bedford, Mass.). Nonspecific binding on the membrane was minimized with a blocking buffer containing bovine serum albumin (5%) in PBS-Tween 20. The membranes were subsequently incubated with primary anti-phosphotyrosine antibody (Upstate Biotechnology, Lake Placid, N.Y.) for the detection of phosphotyrosine. The membranes were stripped and reprobed with anti-EGFR (Neomarkers, Fremont, Calif.) for determination of corresponding receptor levels. Blots were incubated with horseradish peroxidase-goat anti-mouse antibody (1:1,000 dilution; Cell Signaling Research, Beverly, Mass.), and the bands visualized with an enhanced chemiluminescence system (Amersham Pharmacia Biotech,. Little Chalfont, UK). Band intensities were measured using the SynGene GeneTools software package.
Inhibition of EGFR TK in Whole Cell Assay: DU145 cells were starved for 24 h and stimulated with EGF in the presence of the different drugs over a period of 2 h. Inhibition of autophosphorylation of EGFR was analyzed by Western blotting. The observed order of potency from this whole cell assay paralleled the one previously observed with ELISA. […]

EGFR tyrosine kinase = biological target: T2, EGFR tyrosine kinase (Homo sapiens, UniProt P00533); experiment: EGFR kinase enzyme assay (ELISA, PGT phosphorylation); assay type: biochemical; conditions: for IC50: 8 minute exposure, PGT substrate, read-out: IC50, EGFR TK inhibition
T2 construct: purchased
T2 sequence (P00533 25-1210): as above
Description: EGFR Kinase Enzyme Assay: The EGFR kinase assay was performed following a known procedure. Briefly, Nunc MaxiSorp (Nalge Nunc International, Rochester, N.Y., USA) 96-well plates were incubated overnight at 37° C. with 100 μL/well of […] poly(L-glutamic acid-L-tyrosine, 4:1) PGT in PBS. Excess PGT was removed and the plates were washed three times with wash buffer (0.1% Tween-20 in PBS). The kinase reaction was performed using commercially available isolated EGFR (4.5 ng/well). The compound was added and phosphorylation was initiated by the addition of 20 μL/well of ATP (50 μM). After 8 min at room temperature with constant shaking, the reaction was terminated by aspiration of the reaction mixture and rinsing of the plates (four times) with wash buffer. Phosphorylated PGT was detected following a 25 min incubation with 50 μL/well of horseradish peroxidase-conjugated PY20 anti-phosphotyrosine antibody (Santa Cruz Biotechnology, Santa Cruz, Calif., USA) diluted to […] in blocking buffer (3% bovine serum albumin and 0.05% Tween-20 in PBS). The antibody was removed by aspiration and the plates washed four times with wash buffer. The signals were developed by the addition of 50 μL/well of 3,3′,5,5′-tetramethylbenzidine peroxidase substrate (Kirkegaard and Perry Laboratories, Gaithersberg, Md., USA). Following blue color development, H2SO4 (50 μL; 0.09 M) was added per well to stop the reaction. The plates were read at 450 nm using a Bio-Rad ELISA reader (model 2550; Bio-Rad, Hercules, Calif., USA).
Inhibition of EGFR TK: The EGFR TK inhibitory activity of JDF12 and its metabolite JDF04R was tested in a short 8 minute exposure to an ELISA assay. The assay was based on the inhibition of phosphorylation of poly(L-glutamic acid-L-tyrosine, 4:1) (PGT) by EGFR tyrosine kinase. […] As expected, the EGFR TK-inhibitory activity of MTZ was negligible (FIG. 1).

LNCaP-ErbB2 = experiment: Growth inhibition assay (SRB), LNCaP-ErbB2; conditions: 144 h, read-out: IC50 (x ± SD)
Description: as §1

LNCaP-EGFR = experiment: Growth inhibition assay (SRB), LNCaP-EGFR; conditions: 144 h, read-out: IC50 (x ± SD)
Description: as §1

DU145 cells [4] = experiment: Annexin V binding analysis (apoptosis); assay type: cell-based, human; conditions: 25 μM, 48 h exposure
Description: Annexin V binding Analysis: Cells were pre-incubated in 6-well plates until confluence and then exposed to a dose range of each drug over a period 48 h. The cells were subsequently harvested and incubated with annexin V-FITC and propidium iodide (PI) using the apoptosis Detection Kit (BD Bioscience Pharmingen, USA) and the supplier's protocol. Annexin V-FITC and PI binding were analyzed using a Becton-Dickinson FACScan. Data were collected using logarithmic amplification of both the FL1 (FITC) and FL2 (PI) channels. Quadrant analysis of coordinate dot plots was performed with CellQuest software.
Induction of Apoptosis: Annexin V-FITC (FL1-H) and PI (FL2-H) staining (detected by flow cytometry) was used to distinguish viable (PI-/FITC−), early apoptotic (PI-/FITC+), late apoptotic (PI+/FITC+) and necrotic (PI+/FITC−) cells. […] JDF04R, Iressa and MTZ however, induced only barely detectable levels of apoptosis (<10%). The results are indicative that the combined EGFR TK inhibitory and DNA damaging properties of JDF12 can induce more cell apoptosis than observed with a single-function drug (e.g. Iressa and MTZ) alone (FIG. 7a-c).

[5] = tested on: DU145, LNCaP, LNCaPEGFR, and LNCaPerb2 cell lines; experiment: Growth inhibition assay (SRB), comparisons over all four cell lines; assay type: cell-based
Text: Each point represents the average of at least two independent experiments run in triplicate.

[6] = listed as Mitozolomide, 100 mg/kg

COc1cc2ncnc(Nc3ccc(F)c(Cl)c3)c2cc1OCCCN1CCOCC1 [Iressa]
Vital Sign, Day 1 [1]: Normal
Vital Sign, Day 3 [1]: Normal
Vital Sign, Day 6 [1]: Normal
Vital Sign, Day 8 [1]: Normal
Vital Sign, Day 10 [1]: Normal
Vital Sign, Day 16 [1]: Normal
toxicity at 100 mg/kg ([1]; CD-1 mice, 100 mg/kg): no signs of toxicity
antitumor activity (DU145 cell line): did not show significant antitumor activity

Nc1[nH]cnc1C(=O)Nc1ccc2ncnc(Nc3cccc(Cl)c3)c2c1 [JDF04R]
IC50 (DU145): 151 ± 17 µM
DNA damage (tail moment) (DU145 cells [2]; DU145 cells, 2 h exposure): did not demonstrate any DNA damaging activity
IC50 (LNCaP-WT): 178 ± 13.3 µM
inhibition of EGFR TK ([3]; DU145 cells, at concentrations as low as 6 μM): ~100%
IC50 (EGFR tyrosine kinase; ELISA): 0.23 µM
more potent EGFR TK inhibitor than JDF12 (fold) (EGFR tyrosine kinase; JDF04R vs JDF12, ELISA IC50): 2.7 fold
IC50 (LNCaP-ErbB2): 111 ± 18.1 µM
IC50 (LNCaP-EGFR): 119 ± 4.1 µM

O=C(Nc1ccc2ncnc(Nc3cccc(Cl)c3)c2c1)c1ncn2c(=O)n(CCCl)nnc12 [JDF12]
IC50 (DU145): 11.3 ± 0.22 µM
late apoptosis (DU145 cells [4]): significant increase in late apoptosis
DNA damage (tail moment) (DU145 cells [2]; DU145 cells, 2 h exposure): dose-dependent DNA damage
DNA damage, fold less than MTZ (DU145 cells [2]; DU145 cells, 2 h exposure): 2 fold
IC50 (LNCaP-WT): 13.2 ± 3.88 µM
IC50 ([3]; DU145 cells, EGF stimulated, 2 h drug exposure): 12 µM
potency less than that of JDF04R (fold) ([3]; DU145 whole cell assay): approximately 2 fold
Vital Sign, Day 1 [1]: Normal
Vital Sign, Day 3 [1]: Normal
Vital Sign, Day 6 [1]: Normal
Vital Sign, Day 8 [1]: Normal
Vital Sign, Day 10 [1]: Normal
Vital Sign, Day 16 [1]: Normal
toxicity at 100 mg/kg ([1]; CD-1 mice, 100 mg/kg): no signs of toxicity; also recorded: minor toxicity
MTD at 14 days ([1]; male, CD-1, mouse, in vivo, mice, weight loss over a 14-day period, two animals per group, read-out: maximum tolerated dose): 100 mg/kg
increased anti-proliferation potency compared to Iressa (fold) ([5]; four cell lines): 2-3 fold
increased anti-proliferation potency compared to MTZ (fold) ([5]; four cell lines): 10-16 fold
more potent than equimolar combination of MTZ with Iressa or JDF04R (fold) ([5]; four cell lines): 1.7 fold
more potent than the equieffective 2-drug combination (fold) ([5]; identical conditions): more than 1.3 fold
IC50 (EGFR tyrosine kinase; ELISA): 0.62 µM
IC50 (LNCaP-ErbB2): 13.3 ± 2.02 µM
weight loss during the efficacy study (DU145 cell line; CD-1 mice, 100 mg/kg, FIG. 8c): No weight loss
antitumor activity (DU145 cell line; 100 mg/kg): significant antitumor activity; also recorded: superior to that of an equidose of Iressa
IC50 (LNCaP-EGFR): 12 ± 0.57 µM

NC(=O)c1ncn2c(=O)n(CCCl)nnc12 [MTZ, 8-carbamoyl-3-(2-chloroethyl)imidazo[5,1-d]-1,2,3,5-tetrazin-4(3H)-one]
IC50 (DU145): 179 ± 21.1 µM
level of DNA damage, fold higher than JDF12 (DU145 cells [2]): approximately 2 fold
IC50 (LNCaP-WT): 150 ± 7.92 µM
Vital Sign, Day 1 [1]: Normal
Vital Sign, Day 3 [1]: Normal
Vital Sign, Day 6 [1, 6]: Weight loss > 20% (1 mouse); also recorded: Death (1 mouse); also recorded: (BCS = 2)
Vital Sign, Day 8 [1, 6]: (BCS = 2); also recorded: Weight loss > 20% (1 mouse)
Vital Sign, Day 10 [1, 6]: (BCS = 2); also recorded: Weight loss > 20% (1 mouse)
Vital Sign, Day 16 [1, 6]: (BCS = 2); also recorded: All Mice Thin; also recorded: Death (3 mice)
toxicity at 100 mg/kg ([1]; CD-1 mice, 100 mg/kg): toxic at this dose
overall body condition score (BCS) ([1]; CD-1 mice, 100 mg/kg, 6-10 days after initiating treatment): 2
EGFR TK-inhibitory activity (EGFR tyrosine kinase; ELISA, FIG. 1): negligible
IC50 (LNCaP-ErbB2): 142 ± 8.93 µM
IC50 (LNCaP-EGFR): 176 ± 6.51 µM
